Source: patent publication US20230293475A1, “METHODS OF PROVIDING SO[…] TO SUBJECTS WITH IMPAIRED RENAL FUNCTION” (Axsome Malta Ltd., priority 2020, published 2023)
Where two headings read alike, the source gives them in different places.

How the values were obtained:
[1] = Phase 1 single-dose study, safety (treatment-emergent adverse events); assay type: in vivo, human
Description: In healthy subjects with normal renal function, solriamfetol HCl is renally excreted ~90% unchanged within 48 hours of administration. Thus, renal impairment, as well as hemodialysis in individuals with end-stage renal disease (ESRD), could affect the PK of solriamfetol HCl. To ascertain the precise impact of renal impairment and hemodialysis on pharmacokinetics and safety of solriamfetol RCl, a Phase 1, parallel-group, open-label, single-dose study was conducted at 2 U.S. sites. The protocol was approved by the IntegReview Institutional Review Board (Austin, Texas), and the study was conducted in compliance with the protocol, the Guideline for Good Clinical Practice E6; the US Code of Federal Regulations pertaining to conduct and reporting of clinical studies; the Clinical Trials Directive of the European Medicines Agency (Directive 2001/20/EC); and the Declaration of Helsinki. Written informed consent was obtained from each subject before enrollment in the study and before performance of any study-related procedure. See, also, Zomorodi K, Chen D, Lee L, Lasseter K, Marbury T. An Open-Label, Single-Dose, Phase 1 Study of the Pharmacokinetics and Safety of JZP-110 in Subjects With Normal or Impaired Renal Function and With End-Stage Renal Disease Requiring Hemodialysis [abstract]. Sleep. 2017;40 (suppl):A382-383.
Eligible participants were assigned to 1 of 5 groups according to renal disease status as measured by the estimated glomerular filtration rate (eGFR) on the day prior to dosing, calculated using the Modification in Diet in Renal Disease equation. Group 1 consisted of healthy participants with normal renal function (eGFR ≥ 90 mL/min/1.73 m^2) and served as the control group. Groups 2, 3, and 4 had mild, moderate, and severe renal impairment based on eGFRs of 60-89, 30-59, and < 30 mL/min/1.73 m^2, respectively. Group 5 consisted of participants with ESRD who required ≥ 3 hemodialysis treatments per week for the preceding 3 months. […] Group 1 was enrolled last to facilitate matching the mean age, BMI, and sex distribution of Groups 2-5.
(§1) Groups 1-4 received one dose of solriamfetol HCl (89.3 mg; equivalent to 75-mg solriamfetol) on day 1; Group 5 received one dose equivalent to 75-mg dose on day 1 followed by 4-hour hemodialysis (designated Group 5.2), and one dose equivalent to 75-mg solriamfetol on day 8 without hemodialysis (designated Group 5.1). All doses were administered on an empty stomach following an overnight fast except for participants in Group 5, who received a standardized snack on day 7 and breakfast early on day 8 before starting an 8-hour fast. Participants remained fasting for 4 hours after administration, with water allowed except for 1 hour before and after dosing.

[2] = Phase 1 single-dose study, urinary excretion of solriamfetol; assay type: in vivo, human; details: for Fe(0-48), fraction of the dose excreted unchanged in urine in 48 hours, mean ± SD (%CV) / CL renal: single 75-mg dose; for cumulative amount excreted in urine: Group 5 ESRD, 1 participant; for CL renal: both sexes, human, urine, oral, 75 mg, read-out: CLR, renal clearance, mean ± SD (%CV) (converted)
Description: as §1
Urine samples were collected predose and for the time intervals of 0-4, 4-8, 8-12, 12-24, and 24-48 hours in Groups 1-3, with additional collection for the 48-72 hour time interval in Groups 4 and 5. During the hemodialysis period on day 1 for Group 5, dialysate samples and pre- and post-dialyzer paired blood samples were collected at pre-dialysis (2 hours), and at 3, 4, 5, and 6 hours following dosing. Urine and dialysate samples were aliquoted into polypropylene tubes for freezing and storage at -70° C. until analysis. All blood, urine, and dialysate samples were shipped on dry ice to a central bioanalytical laboratory.
Bioanalytical analyses were performed by a central laboratory (KCAS, LLC, Shawnee, Kansas) using validated proprietary methods that included extraction/derivatization and liquid chromatography-tandem mass spectrometry (LC-MS/MS). Measurement of solriamfetol was over the linear range of 8.42 to 4,210 ng/mL in plasma, 0.21 to 84.2 µg/mL in urine, and 1.68 to 842 ng/mL in dialysate. Solriamfetol was removed from dialysate samples with use of the Fresenius Optiflux F180NR dialyzer (Fresenius Medical Care, Waltham, Massachusetts). Assay performance was monitored by spiking blank interference free human plasma with positive controls and internal standards to generate standard curve and quality control samples. After derivatization, samples were chromatographed on a C8 reversed phase analytical HPLC (high-performance liquid chromatography) column, with subsequent monitoring using an API4000 LC-MS/MS unit (Sciex, Framingham, Massachusetts). Quantification was based on setting a calibration graph using the internal standard method. Coefficients of variation (CVs) for quality control samples were 3.2% to 6.0% for the plasma samples, 1.6% to 5.6% for the urine samples, and 3.5% to 7.1% for the dialysate samples.
The following plasma PK parameters were evaluated using non-compartmental analysis in Phoenix® WinNonlin® Version 6.3: Cmax; time to reach Cmax following drug administration (tmax); t½; area under the plasma concentration-time curve from time zero to time of last quantifiable concentration (AUCt); AUC from time zero to infinity (AUC∞); apparent total clearance of the drug from plasma after oral administration (CL/F); and apparent volume of distribution (Vd/F). The PK parameters for solriamfetol in urine included the amount of unchanged drug excreted in urine (Ae) over 48 or 72 hours; the fraction of the dose excreted unchanged in urine (Fe); and renal clearance of the drug (CLR). For participants on hemodialysis (Group 5), the additional PK parameters included the amount of solriamfetol cleared by the 4-hour hemodialysis (Adial); the fraction of dose removed by the 4-hour hemodialysis (Fdial); and hemodialysis clearance (CLdial) calculated as CLdial = Adial/AUCdial where AUCdial is the area under the pre-dialyzer plasma concentration-time curve during the hemodialysis period.

[3] = Group 1 normal renal function (n = 6), single 75-mg dose
[4] = Group 2 mild renal impairment (n = 6), single 75-mg dose
[5] = Group 3 moderate renal impairment (n = 6), single 75-mg dose
[6] = Group 4 severe renal impairment (n = 6), single 75-mg dose
[7] = Group 5.1 ESRD without hemodialysis (n = 6), single 75-mg dose
[8] = Group 5.2 ESRD with hemodialysis (n = 7), single 75-mg dose
[9] = Group 3 moderate renal impairment
[10] = Group 4 severe renal impairment

NC(=O)OC[C@H](N)Cc1ccccc1 [solriamfetol, [R]-2-amino-3-phenylpropylcarbamate]
aspartate aminotransferase (AST), increase to ([1]; 1 participant, Group 5, 6 days after dosing, reference range 8-40 IU/L): 66 IU/L
alanine aminotransferase (ALT), increase to ([1]; 1 participant, Group 5, 6 days after dosing, reference range 8-54 IU/L): 144 IU/L
ALT increased, number (%) of participants [1, 3]: 0
AST increased, number (%) of participants [1, 3]: 0
Any TEAE, number (%) of participants [1, 3]: 0
Headache, number (%) of participants [1, 3]: 0
Nausea, number (%) of participants [1, 3]: 0
Skin abrasion, number (%) of participants [1, 3]: 0
ALT increased, number (%) of participants [1, 4]: 0
AST increased, number (%) of participants [1, 4]: 0
Any TEAE, number (%) of participants [1, 4]: 1 (17%)
Headache, number (%) of participants [1, 4]: 0
Nausea, number (%) of participants [1, 4]: 0
Skin abrasion, number (%) of participants [1, 4]: 1 (17%)
ALT increased, number (%) of participants [1, 5]: 0
AST increased, number (%) of participants [1, 5]: 0
Any TEAE, number (%) of participants [1, 5]: 1 (17%)
Headache, number (%) of participants [1, 5]: 1 (17%)
Nausea, number (%) of participants [1, 5]: 0
Skin abrasion, number (%) of participants [1, 5]: 0
ALT increased, number (%) of participants [1, 6]: 0
AST increased, number (%) of participants [1, 6]: 0
Any TEAE, number (%) of participants [1, 6]: 0
Headache, number (%) of participants [1, 6]: 0
Nausea, number (%) of participants [1, 6]: 0
Skin abrasion, number (%) of participants [1, 6]: 0
ALT increased, number (%) of participants [1, 7]: 0
AST increased, number (%) of participants [1, 7]: 0
Any TEAE, number (%) of participants [1, 7]: 1 (17%)
Headache, number (%) of participants [1, 7]: 0
Nausea, number (%) of participants [1, 7]: 1 (17%)
Skin abrasion, number (%) of participants [1, 7]: 0
ALT increased, number (%) of participants [1, 8]: 1 (14%)
AST increased, number (%) of participants [1, 8]: 1 (14%)
Any TEAE, number (%) of participants [1, 8]: 1 (14%)
Headache, number (%) of participants [1, 8]: 0
Nausea, number (%) of participants [1, 8]: 0
Skin abrasion, number (%) of participants [1, 8]: 0
participants reporting treatment-emergent adverse events, total ([1]; all groups, 31 participants (13%)): 4
deaths or other serious AEs ([1]; all groups, single 75-mg dose): no deaths or other serious AEs
severity of all TEAEs as considered by the investigator ([1]; all groups, single 75-mg dose): mild
vital sign and ECG measurements ([1]; all groups, single 75-mg dose): No clinically significant abnormal findings
Fe(0-48), fraction of the dose excreted unchanged in urine in 48 hours, mean ± SD (%CV) ([2]; Group 1 normal renal function): 85.8%
Fe(0-48), fraction of the dose excreted unchanged in urine in 48 hours, mean ± SD (%CV) ([2]; Group 2 mild renal impairment): 80.0%
Fe(0-48), fraction of the dose excreted unchanged in urine in 48 hours, mean ± SD (%CV) [2, 9]: 66.4%
Fe(0-48), fraction of the dose excreted unchanged in urine in 48 hours, mean ± SD (%CV) [2, 10]: 57.1%
cumulative amount excreted in urine ([2]; with hemodialysis): 42.1%
cumulative amount excreted in urine ([2]; without hemodialysis): 52.9%
CL renal ([2]; Group 1 normal renal function): 283 mL/min
CL renal ([2]; Group 2 mild renal impairment): 155 mL/min
CL renal [2, 9]: 96.7 mL/min
CL renal [2, 10]: 63.3 mL/min
mean percentage of dose recovered in urine as unchanged drug over 72 hours ([2]; severe renal impairment): 64.0%
